The values below come from PMC4963535, “Structure-guided development of heterodimer-selective GPCR ligands” (Nature Communications, 2016).

One assay concerns the target T1, hD4.4R (Homo sapiens, UniProt P21917).
T1 construct: expressed in transfected cells
T1 sequence (P21917 1-419): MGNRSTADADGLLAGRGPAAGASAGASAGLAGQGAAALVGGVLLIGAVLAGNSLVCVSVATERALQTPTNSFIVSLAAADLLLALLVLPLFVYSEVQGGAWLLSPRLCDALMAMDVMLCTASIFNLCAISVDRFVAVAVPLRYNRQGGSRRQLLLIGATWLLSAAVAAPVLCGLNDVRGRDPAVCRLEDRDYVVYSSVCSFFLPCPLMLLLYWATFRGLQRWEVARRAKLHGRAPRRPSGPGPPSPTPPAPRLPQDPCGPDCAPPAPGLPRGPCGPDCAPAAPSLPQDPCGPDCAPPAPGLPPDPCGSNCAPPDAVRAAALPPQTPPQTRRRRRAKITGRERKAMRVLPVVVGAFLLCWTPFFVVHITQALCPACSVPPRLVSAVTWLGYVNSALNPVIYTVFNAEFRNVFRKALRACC
In words: [3H]spiperone displacement, membranes from CHO cells stably expressing hD4.4R. The class given is binding.

The target in the next assay is D2LR/NTS1R (Homo sapiens, UniProt P14416+P30989). In words: [3H]spiperone displacement, membranes from HEK 293 T cells coexpressing D2LR and NTS1R. The note with it: D2LR:NTS1R 1:2; mean ± s.e.m.
The target of the next assay is T2, D2R (Homo sapiens, UniProt P14416).
T2 construct: expressed in transfected cells; host or cells: HEK 293 T
Kind of assay: Antagonist effect on quinpirole-mediated inhibition of cAMP accumulation, HEK 293T cells expressing D2R. It counts as cell-based. (In general: Changes in cAMP serve as a functional read-out for many G protein-coupled receptors.)

Another assay deals with T3, hD3R (Homo sapiens, UniProt P35462).
T3 construct: expressed in transfected cells
Kind of assay: [3H]spiperone displacement, membranes from CHO cells stably expressing hD3R. The class given is binding.

The target in the next assay is T4, D2R_D80A/NTS1R (Homo sapiens, UniProt P14416+P30989, D80A).
T4 construct: host or cells: HEK 293 stably expressing EA-tagged β-arrestin-2
Kind of assay: β-arrestin-2 recruitment (DiscoveRx PathHunter), ProLink-tagged signalling incompetent D2R_D80A coexpressed with NTS1R. It counts as cell-based.

A further assay addresses T5, D2SR (Homo sapiens, UniProt P14416).
T5 construct: expressed in transfected cells; host or cells: HEK 293 T
In words: cAMP BRET assay (CAMYEL biosensor), HEK 293 T cells expressing D2SR. The class given is cell-based. The note with it: 10 μM forskolin. On the technique in general: In BRET a luciferase serves as donor, and the signal depends on an acceptor being close.

A further assay deals with T6, hNTS2R (Homo sapiens, UniProt O95665).
T6 construct: host or cells: HEK 293T
In words: [3H]NT(8-13) displacement, homogenates from transiently transfected HEK 293T cells, human NTS2R. The class given is binding.

In assay [1] the target is porcine striatal membranes (D2LR, NTS1R). Kind of assay: [3H]spiperone displacement, porcine striatal membranes. It counts as binding. The note with it: porcine striatum.
Assay [2] deals with D2R/NTS1R heterodimer (D2LR and NTS1R coexpressed in HEK 293 T membranes), P14416. In words: +1 uM NT(8-13). The note with it: N-homotyrosine (NhTyr) in place of tyrosine.

“Also recorded” adds a separate entry of the source. Where two headings read alike, the source gives them in different places. Non-standard residues stand in square brackets, D forms with d. No end group written: not given here. aminoindane‑type D2R agonist pharmacophore = not defined here; N(4-hydroxyphenethyl)Gly = O=C(O)CNCCc1ccc(O)cc1; biphenyltriazole = not defined here

Sequence of D2LR/NTS1R (P14416 whole entry): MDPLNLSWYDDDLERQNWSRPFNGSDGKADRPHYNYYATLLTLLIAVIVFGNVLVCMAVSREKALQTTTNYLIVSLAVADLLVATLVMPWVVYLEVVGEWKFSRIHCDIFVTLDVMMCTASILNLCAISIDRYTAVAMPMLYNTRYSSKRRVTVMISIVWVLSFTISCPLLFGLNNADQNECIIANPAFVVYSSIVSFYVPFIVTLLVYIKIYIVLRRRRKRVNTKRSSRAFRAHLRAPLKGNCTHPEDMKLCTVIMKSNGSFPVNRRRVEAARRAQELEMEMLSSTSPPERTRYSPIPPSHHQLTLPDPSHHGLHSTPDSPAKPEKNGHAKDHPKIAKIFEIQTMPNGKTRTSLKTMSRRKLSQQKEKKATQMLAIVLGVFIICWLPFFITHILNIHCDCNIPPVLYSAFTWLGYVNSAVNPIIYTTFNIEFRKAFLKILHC
Sequence of D2LR/NTS1R (P30989 whole entry): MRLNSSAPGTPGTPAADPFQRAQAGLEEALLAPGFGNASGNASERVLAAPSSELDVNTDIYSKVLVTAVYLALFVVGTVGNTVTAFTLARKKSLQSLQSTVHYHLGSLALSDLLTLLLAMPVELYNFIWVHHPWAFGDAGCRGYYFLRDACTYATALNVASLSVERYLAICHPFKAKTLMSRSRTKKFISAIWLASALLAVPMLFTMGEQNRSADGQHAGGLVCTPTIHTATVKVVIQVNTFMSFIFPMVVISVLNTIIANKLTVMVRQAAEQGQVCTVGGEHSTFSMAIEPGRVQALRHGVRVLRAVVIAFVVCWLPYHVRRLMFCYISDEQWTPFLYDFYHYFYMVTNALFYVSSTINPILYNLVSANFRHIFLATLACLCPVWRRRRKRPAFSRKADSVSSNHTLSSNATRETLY
T3 sequence (P35462 whole entry): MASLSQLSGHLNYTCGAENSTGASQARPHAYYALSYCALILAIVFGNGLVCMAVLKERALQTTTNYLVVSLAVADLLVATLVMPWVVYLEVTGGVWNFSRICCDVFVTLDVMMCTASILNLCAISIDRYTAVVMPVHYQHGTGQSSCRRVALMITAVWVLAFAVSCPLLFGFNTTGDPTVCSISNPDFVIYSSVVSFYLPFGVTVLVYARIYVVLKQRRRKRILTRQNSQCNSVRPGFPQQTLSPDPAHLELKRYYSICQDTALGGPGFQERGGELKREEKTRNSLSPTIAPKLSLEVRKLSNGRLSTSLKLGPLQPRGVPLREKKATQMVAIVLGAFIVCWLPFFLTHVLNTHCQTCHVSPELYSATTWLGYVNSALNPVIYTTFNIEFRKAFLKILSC
T2 sequence (P14416 1-414 isoform P14416-2): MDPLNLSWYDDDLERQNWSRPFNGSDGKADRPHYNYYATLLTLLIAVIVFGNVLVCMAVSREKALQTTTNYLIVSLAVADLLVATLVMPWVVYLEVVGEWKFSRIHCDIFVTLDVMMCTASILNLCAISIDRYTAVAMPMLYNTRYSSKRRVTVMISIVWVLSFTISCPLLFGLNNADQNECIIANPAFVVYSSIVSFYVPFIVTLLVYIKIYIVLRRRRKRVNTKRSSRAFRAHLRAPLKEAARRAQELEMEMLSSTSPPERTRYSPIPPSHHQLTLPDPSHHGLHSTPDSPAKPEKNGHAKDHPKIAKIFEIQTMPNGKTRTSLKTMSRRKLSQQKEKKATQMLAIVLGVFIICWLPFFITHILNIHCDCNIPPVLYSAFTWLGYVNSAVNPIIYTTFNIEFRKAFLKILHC
Sequence of D2R/NTS1R heterodimer (D2LR and NTS1R coexpressed in HEK 293 T membranes), P14416 (P14416 whole entry, chain 1 of 2): as the sequence (P14416 whole entry) above
Sequence of D2R/NTS1R heterodimer (D2LR and NTS1R coexpressed in HEK 293 T membranes), P14416 (P30989 whole entry, chain 2 of 2, further chain): as the sequence (P30989 whole entry) above
T6 sequence (O95665 whole entry): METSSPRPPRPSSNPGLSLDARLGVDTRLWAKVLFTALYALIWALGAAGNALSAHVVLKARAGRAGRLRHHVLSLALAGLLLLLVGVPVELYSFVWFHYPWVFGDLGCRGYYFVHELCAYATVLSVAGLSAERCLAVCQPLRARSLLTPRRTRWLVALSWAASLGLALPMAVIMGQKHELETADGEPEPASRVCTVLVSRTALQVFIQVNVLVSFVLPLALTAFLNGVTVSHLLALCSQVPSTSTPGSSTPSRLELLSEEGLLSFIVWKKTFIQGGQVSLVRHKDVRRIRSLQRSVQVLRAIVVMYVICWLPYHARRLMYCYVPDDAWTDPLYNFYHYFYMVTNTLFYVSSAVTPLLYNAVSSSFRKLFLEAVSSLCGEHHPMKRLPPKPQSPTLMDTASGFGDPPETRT
T5 sequence (P14416 1-414 isoform P14416-2): as the sequence (P14416 1-414 isoform P14416-2) above
T4 sequence (P14416 1-414 isoform P14416-2 D80A): as the sequence (P14416 1-414 isoform P14416-2) above, with D80A counted along it
T4 sequence (P30989 whole entry): as the sequence (P30989 whole entry) above

`CCc1cc(Cl)c(OC)c(C(=O)NC[C@@H]2C[C@@H](OCCCCc3cn(-c4ccc(-c5ccc(C(=O)NCCOCCOCCOCCOCCOCCOCCC(=O)N[C@@H](CCCNC(=N)N)C(=O)N[C@@H](CCCNC(=N)N)C(=O)N6CCC[C@H]6C(=O)N[C@@H](Cc6ccc(O)cc6)C(=O)N[C@H](C(=O)N[C@@H](CC(C)C)C(=O)O)[C@@H](C)CC)cc5)cc4)nn3)CN2CC)c1O` [1a]: the affinity on hD4.4R corresponds to a Ki of 470 ± 420 nM.
Take `CCc1cc(Cl)c(OC)c(C(=O)NC[C@@H]2C[C@@H](OCCCCc3cn(-c4ccc(-c5ccc(C(=O)NCCOCCOCCOCCOCCOCCOCCC(=O)NCCOCCOCCOCCOCCOCCOCCC(=O)N[C@@H](CCCNC(=N)N)C(=O)N[C@@H](CCCNC(=N)N)C(=O)N6CCC[C@H]6C(=O)N[C@@H](Cc6ccc(O)cc6)C(=O)N[C@H](C(=O)N[C@@H](CC(C)C)C(=O)O)[C@@H](C)CC)cc5)cc4)nn3)CN2CC)c1O` [1b]: the “Fraction high (fraction representing the high-affinity binding site)” value (from here on “Fraction high”) at D2LR/NTS1R is listed as 31 ± 6%. Moreover, on D2R (10 nM quinpirole), the “antagonist behaviour at D2R (in words)” value is reported as “inverse agonists; also recorded: inverse agonist effect” and the “decrease of the basal response (inverse agonist effect on basal cAMP level)” value is given as 32%. On hD4.4R, this molecule displayed an inhibition constant Ki of 850 ± 750 nM.
Consider `CCc1cc(Cl)c(OC)c(C(=O)NC[C@@H]2C[C@@H](OCCCCc3cn(-c4ccc(-c5ccc(C(=O)NCCOCCOCCOCCOCCOCCOCCC(=O)NCCOCCOCCOCCOCCOCCOCCC(=O)NCCOCCOCCOCCOCCOCCOCCC(=O)N[C@@H](CCCNC(=N)N)C(=O)N[C@@H](CCCNC(=N)N)C(=O)N6CCC[C@H]6C(=O)N[C@@H](Cc6ccc(O)cc6)C(=O)N[C@H](C(=O)N[C@@H](CC(C)C)C(=O)O)[C@@H](C)CC)cc5)cc4)nn3)CN2CC)c1O` [1c], for which, at D2LR/NTS1R, the “Fraction high” value was found to be 66 ± 5%. At hD4.4R, this molecule displayed an inhibition constant (Ki) of 420 ± 100 nM.
In the case of `CCc1cc(Cl)c(OC)c(C(=O)NC[C@@H]2C[C@@H](OCCCCc3cn(-c4ccc(-c5ccc(C(=O)NCCOCCOCCOCCOCCOCCOCCC(=O)NCCOCCOCCOCCOCCOCCOCCC(=O)NCCOCCOCCOCCOCCOCCOCCC(=O)NCCOCCOCCOCCOCCOCCOCCC(=O)N[C@@H](CCCNC(=N)N)C(=O)N[C@@H](CCCNC(=N)N)C(=O)N6CCC[C@H]6C(=O)N[C@@H](Cc6ccc(O)cc6)C(=O)N[C@H](C(=O)N[C@@H](CC(C)C)C(=O)O)[C@@H](C)CC)cc5)cc4)nn3)CN2CC)c1O` [1d], the “Fraction high” value on D2LR/NTS1R is 51 ± 5%. The inhibition constant (Ki) came out at 440 ± 190 nM at hD4.4R and 1.6 ± 0.4 nM on hD3R.
Regarding `CC[C@H](C)[C@H](NC(=O)[C@H](Cc1ccc(O)cc1)NC(=O)[C@@H]1CCCN1C(=O)[C@H](CCCNC(=N)N)NC(=O)[C@H](CCCNC(=N)N)NC(=O)CCOCCOCCOCCOCCOCCOCCNC(=O)c1ccc(-c2ccc(-n3cc(CCCCN4CCN(c5ccccc5OC)CC4)nn3)cc2)cc1)C(=O)N[C@@H](CC(C)C)C(=O)O` [2a], the Ki at hD4.4R was found to be 62 ± 4 nM; at hD3R it was 2.7 ± 0.1 nM.
On to `CC[C@H](C)[C@H](NC(=O)[C@H](Cc1ccc(O)cc1)NC(=O)[C@@H]1CCCN1C(=O)[C@H](CCCNC(=N)N)NC(=O)[C@H](CCCNC(=N)N)NC(=O)CCOCCOCCOCCOCCOCCOCCNC(=O)CCOCCOCCOCCOCCOCCOCCNC(=O)CCOCCOCCOCCOCCOCCOCCNC(=O)c1ccc(-c2ccc(-n3cc(CCCCN4CCN(c5ccccc5OC)CC4)nn3)cc2)cc1)C(=O)N[C@@H](CC(C)C)C(=O)O` [2c], for which the “Fraction high” value at D2LR/NTS1R came out at 61 ± 2%. Also, the “concentration of maximum effect (bell-shaped curve), D2R_D80A/NTS1R” value at D2R_D80A/NTS1R is on record as 300 nM. In addition, the “effect on forskolin-induced cAMP accumulation, cells expressing D2R only (in words)” value at D2SR is given as “only weakly activates D2R”. For the same molecule, at hD4.4R, the affinity corresponds to a Ki of 430 ± 220 nM.
Turning to `CC[C@H](C)[C@H](NC(=O)[C@H](Cc1ccc(O)cc1)NC(=O)[C@@H]1CCCN1C(=O)[C@H](CCCNC(=N)N)NC(=O)[C@H](CCCNC(=N)N)NC(=O)CCOCCOCCOCCOCCOCCOCCNC(=O)CCOCCOCCOCCOCCOCCOCCNC(=O)CCOCCOCCOCCOCCOCCOCCNC(=O)CCOCCOCCOCCOCCOCCOCCNC(=O)c1ccc(-c2ccc(-n3cc(CCCCN4CCN(c5ccccc5OC)CC4)nn3)cc2)cc1)C(=O)N[C@@H](CC(C)C)C(=O)O` [2d], the “Fraction high” value on D2LR/NTS1R is reported as 62 ± 3%. Also, the Ki at hD4.4R was 370 ± 50 nM.
Regarding `CC[C@H](C)[C@H](NC(=O)CN(CCc1ccc(O)cc1)C(=O)[C@@H]1CCCN1C(=O)[C@H](CCCNC(=N)N)NC(=O)[C@H](CCCNC(=N)N)NC(=O)CCOCCOCCOCCOCCOCCOCCNC(=O)c1ccc(-c2ccc(-n3cc(CCCCN4CCN(c5ccccc5OC)CC4)nn3)cc2)cc1)C(=O)N[C@@H](CC(C)C)C(=O)O` [2e], the Ki at hNTS2R is 20 nM; on hD3R it was 5.8 ± 1.3 nM.
`CC[C@H](C)[C@H](NC(=O)CN(CCc1ccc(O)cc1)C(=O)[C@@H]1CCCN1C(=O)[C@H](CCCNC(=N)N)NC(=O)[C@H](CCCNC(=N)N)NC(=O)CCOCCOCCOCCOCCOCCOCCNC(=O)CCOCCOCCOCCOCCOCCOCCNC(=O)c1ccc(-c2ccc(-n3cc(CCCCN4CCN(c5ccccc5OC)CC4)nn3)cc2)cc1)C(=O)N[C@@H](CC(C)C)C(=O)O` [2f]: the inhibitory constant (Ki) at hD4.4R turned out to be 260 ± 170 nM.
The same measure, in the same setting: with `CCCN(CCCCc1cn(-c2ccc(-c3ccc(C(=O)NCCOCCOCCOCCOCCOCCOCCC(=O)N[C@@H](CCCNC(=N)N)C(=O)N[C@@H](CCCNC(=N)N)C(=O)N4CCC[C@H]4C(=O)N[C@@H](Cc4ccc(O)cc4)C(=O)N[C@H](C(=O)N[C@@H](CC(C)C)C(=O)O)[C@@H](C)CC)cc3)cc2)nn1)C1Cc2ccccc2C1` [3a] the figure was 25 ± 10 nM.
`CCCN(CCCCc1cn(-c2ccc(-c3ccc(C(=O)NCCOCCOCCOCCOCCOCCOCCC(=O)NCCOCCOCCOCCOCCOCCOCCC(=O)NCCOCCOCCOCCOCCOCCOCCC(=O)N[C@@H](CCCNC(=N)N)C(=O)N[C@@H](CCCNC(=N)N)C(=O)N4CCC[C@H]4C(=O)N[C@@H](Cc4ccc(O)cc4)C(=O)N[C@H](C(=O)N[C@@H](CC(C)C)C(=O)O)[C@@H](C)CC)cc3)cc2)nn1)C1Cc2ccccc2C1` [3c]: the “Fraction high” value on D2LR/NTS1R was determined as 50 ± 4%. On D2SR, the “effect on forskolin-induced cAMP accumulation, cells expressing D2R only (in words)” value was “stimulates D2R similar to quinpirole”. The molecule also displayed a Ki on hD4.4R of 80 ± 26 nM.
For `CCCN(CCCCc1cn(-c2ccc(-c3ccc(C(=O)NCCOCCOCCOCCOCCOCCOCCC(=O)NCCOCCOCCOCCOCCOCCOCCC(=O)NCCOCCOCCOCCOCCOCCOCCC(=O)NCCOCCOCCOCCOCCOCCOCCC(=O)N[C@@H](CCCNC(=N)N)C(=O)N[C@@H](CCCNC(=N)N)C(=O)N4CCC[C@H]4C(=O)N[C@@H](Cc4ccc(O)cc4)C(=O)N[C@H](C(=O)N[C@@H](CC(C)C)C(=O)O)[C@@H](C)CC)cc3)cc2)nn1)C1Cc2ccccc2C1` [3d], at D2LR/NTS1R, the “Fraction high” value stood at 53 ± 6%. Besides, the affinity at hD4.4R corresponds to a Ki of 180 ± 40 nM.
On to `CCCN(CCCCc1cn(-c2ccc(-c3ccc(C(=O)NCCOCCOCCOCCOCCOCCOCCC(=O)NCCOCCOCCOCCOCCOCCOCCC(=O)N[C@@H](CCCNC(=N)N)C(=O)N[C@@H](CCCNC(=N)N)C(=O)N4CCC[C@H]4C(=O)N(CCc4ccc(O)cc4)CC(=O)N[C@H](C(=O)N[C@@H](CC(C)C)C(=O)O)[C@@H](C)CC)cc3)cc2)nn1)C1Cc2ccccc2C1` [3f], for which the Ki on hNTS2R was 20 nM; in assay [1] (read-out: Ki (monophasic), striatal membranes, absence of NT(8-13)), 28 ± 16 nM; in assay [1] (read-out: Ki in the presence of […] μM NT(8-13), striatal membranes, monophasic), 29 ± 5 nM; on hD4.4R it was 71 ± 4 nM; on hD3R it was 1.1 ± 0.1 nM.
With `CCc1cc(Cl)c(OC)c(C(=O)NC[C@@H]2CCCN2CC)c1O` [eticlopride, reference compound], at D2R, it took 3.1 nM to reach half-maximal inhibition (IC50), the “antagonist behaviour at D2R (in words)” value is given as “inverse agonists; also recorded: inverse agonist effect” and the “decrease of the basal response (inverse agonist effect on basal cAMP level)” value turned out to be 22%.
Turning to {2‑methoxyphenylpiperazine D2R antagonist pharmacophore-biphenyltriazole-PEG spacer 44‑atom}-RRP[N(4-hydroxyphenethyl)Gly]IL (reading uncertain) [bivalent control compound 2f], the Ki in assay [2] (N-terminus carries a 44-atom polyethylene glycol-based spacer, a biphenyltriazole moiety and a 2-methoxyphenylpiperazine D2R antagonist pharmacophore) stood at 200 nM.
With {aminoindane‑type D2R agonist pharmacophore-biphenyltriazole-PEG spacer 22‑atom}-RRP[N(4-hydroxyphenethyl)Gly]IL (reading uncertain) [bivalent control compound 3e], the inhibition constant Ki in [2] (N-terminus carries a 22-atom polyethylene glycol-based spacer, a biphenyltriazole moiety and an aminoindane-type D2R agonist pharmacophore) stood at 59 nM.

One may read the Ki as the equilibrium dissociation constant of an inhibitor or competing ligand from its target. As usually defined, the IC50 is the midpoint of a concentration-inhibition curve. A higher IC50 goes with weaker potency in that assay.
